Test system: Diamondback moth (Plutella xylostella)
Test: Test Example 1: Japanese radish seed treatment, mortality of Diamondback moth larvae
Format: in vivo
Settings: 48 h, average of two replications; for mortality at 0.01 mg: dose 0.01 mg/1 grain of seed; for mortality at 0.2 mg: dose 0.2 mg/1 grain of seed
Method: Each of the present fused heterocyclic compounds 3, 4, 5, 9, 15, 16, 17, 18, 19, 20, 22, 25, 72, 74, 85, 130, 399, 409, 414, 419, 443, 444, 445, 464 and 467 was dissolved in acetone (available from Wako Pure Chemical Industries, Ltd.) containing 5% (W/V) SOLGEN TW-20 (available from Daiichi-Kogyo Seiyaku Co. Ltd.) so as to give a prescribed concentration, and to prepare the testing solution.
Nine (9) grains of the Japanese raddish (Raphanus sativas var. longipinnatus) were placed in a 2 ml volume polypropylene microtube (manufactured by As One Co.) and thereto was added 18 μl of the above testing solution and the seeds in the microtube were shaken and stirred on Stirrer (Trade name: VORTEX-GENIE2, manufactured by Scientific Industries, Inc.). After the testing solution was spread uniformly to the whole seed, the seeds were allowed to air dry.
To a 90 ml volume of plastic cup filled with ten (10) g of culture soil (Trade name: Aisai No. 1; available from Katakura Chikkarin Co., Ltd.) was added water (5 ml) and thereto was seeded three (3) grains of the above seeds.
At four days after the seeding, Diamondback moth (Plutella xylostella) at the third instar larval stages were released in a ratio of 10 (ten) heads of insects per the cup, and then the cups were covered with nylon gauze and covered with a lid (hereinafter, referred to as “treated group”).
On the other hand, Japanese raddish was seeded by the similar procedures to the treated group except that the present fused heterocyclic compound was not dissolved in acetone (available from Wako Pure Chemical Industries, Ltd.) containing 5% (W/V) SOLGEN TW-20 (available from Daiichi-Kogyo Seiyaku Co. Ltd.), and the larvae were released, and the cups were covered with a lid (hereinafter, referred to as “Untreated group”).
At two days after the release, the surviving and death of the larvae were observed and on basis of the results of the observation, the mortalities of both groups were calculated by the following equation 1), respectively. Two replication tests were performed on each group. The average value is shown below. Mortality (%)=(Total number of […])/Total number of Tested insects×100 Equation 1)

[1] = Diamondback moth third instar larvae released 4 days after seeding, observed 2 days after release
[2] = third instar larvae released four days after seeding, observed two days after release

SMILES | mortality at 0.01 mg [1] [%] | mortality at 0.2 mg [1] [%] | mortality at 0.01 mg [2] [%] | mortality at 0.2 mg [2] [%]
CCSc1cc(C(F)(F)F)cnc1-c1nc2cc(C(F)(F)C(F)(F)F)cnc2n1C [Present fused heterocyclic compound 17, 2-(3-Ethylsulfanyl-5-trifluoromethyl-pyridin-2-yl)-3-methyl-6-pentafluoroethyl-3H-imidazo[4,5-b]pyridine] | 100 | 100 | – | –
CCS(=O)(=O)c1cc(C(F)(F)F)cnc1-c1nc2cc(C(F)(F)C(F)(F)F)c[n+]([O-])c2n1C [Present fused heterocyclic compound 409, 2-(3-ethylsulfonyl-5-trifluoromethyl-pyridin-2-yl)-3-methyl-6-pentafluoroethyl-3H-imidazo[4,5-b]pyridine 4-oxide] | 100 | 100 | – | –
CCS(=O)(=O)c1cccnc1-c1nc2cc(C(F)(F)F)cc(C#N)c2n1C [Present fused heterocyclic compound 130, 7-Cyano-2-(3-ethylsulfonylpyridin-2-yl)-1-methyl-5-trifluoromethyl-1H-benzimidazole] | 100 | 80 | – | –
CCS(=O)(=O)c1cc(C(F)(F)F)cnc1-c1nc2cc(C(F)(F)F)c(C#N)nc2n1C [Present fused heterocyclic compound 399, 5-cyano-2-(3-ethylsulfonyl-5-trifluoromethylpyridin-2-yl)-3-methyl-6-trifluoromethyl-3H-imidazo[4,5-b]pyridine] | 90 | 95 | – | –
CCSc1cccnc1-c1nc2cc(I)cnc2n1C [Present fused heterocyclic compound 9, 2-(3-ethylsulfanyl-pyridin-2-yl)-6-iodo-3-methyl-3H-imidazo[4,5-b]pyridine] | 100 | 100 | – | –
CCS(=O)(=O)c1cccnc1-c1nc2cc(C(F)(F)F)cnc2n1C [Present fused heterocyclic compound 3, 2-(3-ethylsulfonylpyridin-2-yl)-3-methyl-6-trifluoromethyl-3H-imidazo[4,5-b]pyridine] | 100 | 100 | – | –
CCS(=O)(=O)c1cc(C(F)(F)F)cnc1-c1nc2cc(S(=O)(=O)C(F)(F)F)cnc2n1C [Present fused heterocyclic compound 25, 2-(3-Ethylsulfonyl-5-trifluoromethyl-pyridin-2-yl)-3-methyl-6-trifluoromethylsulfonyl-3H-imidazo[4,5-b]pyridine] | 100 | 100 | – | –
CCS(=O)(=O)c1cccnc1-c1nc2cc(C(F)(F)F)c[n+]([O-])c2s1 [Present fused heterocyclic compound 22, 2-(3-ethylsulfonyl-2-yl)-6-(trifluoromethyl)thiazolo[5,4-b]pyridine 4-oxide] | 100 | 100 | – | –
CCS(=O)(=O)c1cc(C(F)(F)F)cnc1-c1nc2cc(C(F)(F)C(F)(F)F)cnc2n1C [Present fused heterocyclic compound 19, 2-(3-ethylsulfonyl-5-trifluoromethyl-pyridin-2-yl)-3-methyl-6-pentafluoroethyl-3H-imidazo[4,5-b]pyridine] | 100 | 100 | – | –
CC[S+]([O-])c1cc(C(F)(F)F)cnc1-c1nc2cc(C(F)(F)C(F)(F)F)cnc2n1C (stereo not drawn) [Present fused heterocyclic compound 18, 2-(3-Ethylsulfinyl-5-trifluoromethyl-pyridin-2-yl)-3-methyl-6-pentafluoroethyl-3H-imidazo[4,5-b]pyridine] | 100 | 100 | – | –
CCS(=O)(=O)c1cccnc1-c1nc2cc([S+]([O-])C(F)(F)F)cnc2n1C (stereo not drawn) [Present fused heterocyclic compound 20, 2-(3-ethylsulfonyl-pyridin-2-yl)-3-methyl-6-trifluoromethylsulfinyl-3H-imidazo[4,5-b]pyridine] | 100 | 100 | – | –
CCS(=O)(=O)c1cc(C(OC)(OC)OC)cnc1-c1nc2cc(C(F)(F)C(F)(F)F)cnc2n1C [Present fused heterocyclic compound 414, 2-(3-ethylsulfonyl-5-trimethoxymethyl-pyridin-2-yl)-3-methyl-6-pentafluoroethyl-3H-imidazo[4,5-b]pyridine] | 95 | 100 | – | –
Cn1c(-c2ncc(C(F)(F)F)cc2S(C)(=O)=O)nc2cc(C(F)(F)C(F)(F)F)cnc21 [Present fused heterocyclic compound 419, 2-(3-Methylsulfonyl-5-trifluoromethylpyridin-2-yl)-3-methyl-6-pentafluoroethyl-3H-imidazo[4,5-b]pyridine] | 100 | 100 | – | –
CCS(=O)(=O)c1cccnc1-c1nc2cc(C(F)(F)C(F)(F)F)ccc2o1 [Present fused heterocyclic compound 467, 2-(3-Ethylsulfonylpyridin-2-yl)-5-pentafluoroethyl-benzoxazole] | – | – | 100 | 100
CCS(=O)(=O)c1cc(C(F)(F)F)cnc1-c1nc2cc(C(F)(F)F)cnc2n1C [Present fused heterocyclic compound 5, 2-(3-ethylsulfonyl-5-trifluoromethylpyridin-2-yl)-3-methyl-6-trifluoromethyl-3H-imidazo[4,5-b]pyridine] | 100 | 100 | – | –
CCS(=O)(=O)c1cccnc1-c1nc2cc(S(=O)(=O)C(F)(F)F)cnc2n1C [Present fused heterocyclic compound 16, 2-(3-ethylsulfonyl-pyridin-2-yl)-3-methyl-6-trifluoromethylsulfonyl-3H-imidazo[4,5-b]pyridine] | 100 | 100 | – | –
CCS(=O)(=O)c1cc(C(F)(F)C(F)(F)F)cnc1-c1nc2cc(C(F)(F)F)cnc2n1C [Present fused heterocyclic compound 72, 2-(3-ethylsulfonyl-5-pentafluoroethylpyridin-2-yl)-3-methyl-6-trifluoromethyl-3H-imidazo[4,5-b]pyridine] | 100 | 100 | – | –
CCS(=O)(=O)c1cccnc1-c1nc2cc(S(=O)(=O)C(F)(F)F)ccc2o1 [Present fused heterocyclic compound 445, 2-(3-ethylsulfonylpyridin-2-yl)-5-(trifluoromethylsulfonyl)benzoxazole] | 100 | 100 | – | –
CCS(=O)(=O)c1cc(C(F)(F)C(F)(F)F)cnc1-c1nc2cc(C(F)(F)C(F)(F)F)cnc2n1C [Present fused heterocyclic compound 74, 2-(3-ethylsulfonyl-5-pentafluoroethylpyridin-2-yl)-3-methyl-6-pentafluoroethyl-3H-imidazo[4,5-b]pyridine] | 100 | 100 | – | –
CCS(=O)(=O)c1cccnc1-c1nc2cc(SC(F)(F)F)ccc2o1 [Present fused heterocyclic compound 443, 2-(3-ethylsulfonylpyridin-2-yl)-5-(trifluoromethylsulfanyl)benzoxazole] | 100 | 100 | – | –
CCS(=O)(=O)c1cccnc1-c1nc2cc(C(F)(F)C(F)(F)F)cnc2o1 [Present fused heterocyclic compound 464, 2-(3-Ethylsulfonylpyridin-2-yl)-6-pentafluoroethyl-oxazolo[5,4-b]pyridine] | 100 | 100 | – | –
CCS(=O)(=O)c1cccnc1-c1nc2cc(C(F)(F)F)ccc2o1 [Present fused heterocyclic compound 85, 2-(3-Ethylsulfonylpyridin-2-yl)-5-trifluoromethyl-benzoxazole] | 90 | 95 | – | –
CCSc1cc(C(F)(F)F)cnc1-c1nc2cc(C(F)(F)F)cnc2n1C [Present fused heterocyclic compound 4, 2-(3-ethylsulfanyl-5-trifluoromethylpyridin-2-yl)-3-methyl-6-trifluoromethyl-3H-imidazo[4,5-b]pyridine] | 100 | 100 | – | –
CCS(=O)(=O)c1cccnc1-c1nc2cc([S+]([O-])C(F)(F)F)ccc2o1 (stereo not drawn) [Present fused heterocyclic compound 444, 2-(3-ethylsulfonylpyridin-2-yl)-5-(trifluoromethylsulfinyl)benzoxazole] | 100 | 100 | – | –

Source: patent publication US9883675B2, “Method for controlling pests” (SUMITOMO CHEMICAL COMPANY, LIMITED, priority 2013, dated 2018)
